Source: patent US10525103B2, “Combined use of a vector encoding a modified receptor and its exogenous agonist in the treatment of seizures” (UCL BUSINESS LTD, priority 2014, dated 2020)
Read-outs that look alike come from different tables or passages of the source.

How the values were obtained:
hM4Di [1] = molecular target: T1, hM4Di (Homo sapiens, UniProt P08173, A203G/Y113C); set-up: host or cells: rat (Sprague-Dawley) primary motor cortex neurons transduced in vivo with AAV5, Camk2a promoter; conditions: in vivo
T1 sequence (P08173 1-479 Y113C/A203G): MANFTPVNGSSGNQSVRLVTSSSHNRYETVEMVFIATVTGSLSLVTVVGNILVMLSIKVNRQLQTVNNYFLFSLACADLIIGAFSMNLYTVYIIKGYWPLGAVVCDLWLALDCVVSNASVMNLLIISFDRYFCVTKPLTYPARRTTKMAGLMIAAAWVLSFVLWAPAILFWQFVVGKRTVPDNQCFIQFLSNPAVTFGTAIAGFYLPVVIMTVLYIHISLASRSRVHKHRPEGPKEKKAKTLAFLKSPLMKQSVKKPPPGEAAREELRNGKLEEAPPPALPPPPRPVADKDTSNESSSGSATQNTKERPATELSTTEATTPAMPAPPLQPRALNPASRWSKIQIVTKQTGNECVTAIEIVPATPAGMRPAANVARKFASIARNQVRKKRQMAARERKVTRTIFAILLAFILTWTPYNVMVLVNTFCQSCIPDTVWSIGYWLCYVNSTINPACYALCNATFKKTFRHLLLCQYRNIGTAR

[2] = cited from earlier work
[3] = system: human muscarinic acetylcholine receptors mutated to DREADDs; conditions: cited from earlier work
hM4Di [4] = molecular target: T1, hM4Di; test: Overview of hM4Di/CNO treatment in in vivo models of focal epilepsy
hM4Di [5] = molecular target: T1, hM4Di; format: in vivo; set-up: host or cells: rat (Sprague-Dawley) primary motor cortex neurons transduced in vivo with AAV5, Camk2a promoter
[6] = human, in vivo; cited from earlier work
hM4Di [7] = molecular target: T1, hM4Di; format: in vivo; set-up: host or cells: rat (Sprague-Dawley) primary motor cortex neurons transduced in vivo with AAV5, Camk2a promoter; conditions: tetanus toxin model; CNO 1 mg/kg i.p. twice at 2-hour interval, 3.5 hour window, vs vehicle; P=0.028 Wilcoxon
hM3Dq = hM3Dq (Homo sapiens, UniProt P20309, A239G/Y149C); conditions: cited from earlier work
Chain of hM3Dq (P20309 whole entry Y149C/A239G): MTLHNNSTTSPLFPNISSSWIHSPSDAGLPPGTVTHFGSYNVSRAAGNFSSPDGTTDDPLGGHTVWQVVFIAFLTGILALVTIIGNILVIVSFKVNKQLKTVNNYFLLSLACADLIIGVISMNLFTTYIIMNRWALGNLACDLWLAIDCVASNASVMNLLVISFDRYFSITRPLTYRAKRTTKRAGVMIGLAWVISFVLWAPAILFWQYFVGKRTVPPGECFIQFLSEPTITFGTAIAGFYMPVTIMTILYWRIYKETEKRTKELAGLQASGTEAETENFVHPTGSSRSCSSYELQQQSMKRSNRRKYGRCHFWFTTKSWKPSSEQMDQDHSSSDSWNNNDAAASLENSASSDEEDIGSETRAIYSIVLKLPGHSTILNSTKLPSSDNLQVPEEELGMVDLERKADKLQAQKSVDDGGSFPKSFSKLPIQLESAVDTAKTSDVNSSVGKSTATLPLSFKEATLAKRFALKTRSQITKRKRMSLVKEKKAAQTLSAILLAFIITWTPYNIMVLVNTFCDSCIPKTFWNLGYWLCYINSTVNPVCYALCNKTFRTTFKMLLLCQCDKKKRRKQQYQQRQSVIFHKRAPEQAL

SMILES	electrographic and motor convulsions (hM4Di [1])	mean 4-14 Hz power (hM4Di [1])	mean frequency of negative deflections in the EEG (hM4Di [1])	number of IF runs that correlate with severe motor seizures (hM4Di [1])	pilocarpine-triggered seizures (hM4Di [1])	time to significant reduction in seizure severity after CNO administration (hM4Di [1]) [min]	duration of effect on neurons transduced with hM4Di or its excitatory analog [2]	time to full clearance ([2]; rat, in vivo) [h]	activation of DREADD receptors [3]	duration of seizure suppression / CNO present in the brain (hM4Di [4]; following a single intraperitoneal injection) [min]	tolerability of the treatment (hM4Di [4]; hM4Di expression plus systemic CNO)	time to significant reduction in seizure severity after CNO administration (hM4Di [5]; picrotoxin (FIG. 2e)) [min]	attenuation of IF activity (hM4Di [5]; picrotoxin, IF activity correlated with more severe motor seizures)	electrographic discharges (hM4Di [5]; rats with hM4Di AAV in M1, CNO i.p. immediately after focal picrotoxin, vs vehicle)	half-life [6] [h]	coastline (hM4Di [7])	frequency of epileptiform bursts (hM4Di [7])	high-frequency power (hM4Di [7])	binding to hM3Dq (hM3Dq)
C[N+]1([O-])CCN(C2=Nc3cc(Cl)ccc3Nc3ccccc32)CC1 [CNO, clozapine-N-oxide]	substantially reduced	significant decrease	significant decrease	significant decrease	profoundly suppressed	≤ 10	at least 90 minutes	≤ 12	readily activated	45 to 60	well tolerated	≤ 10	especially marked	attenuated	7 to 8	significantly attenuated	significantly attenuated	significantly attenuated	–
CN1CCN(C2=Nc3ccccc3Cc3ccccc32)CC1 [perlapine]	–	–	–	–	–	–	–	–	–	–	–	–	–	–	–	–	–	–	binds
